Reference: US8974837B2, “Pharmaceutical composition comprising an extract of Pseudolysimachion longifolium and the catalpol derivatives isolated therefrom having antiinflammatory, antiallergic and antiasthmatic activity” (Korea Research Institute of Bioscience and Biotechnology, priority 2005, dated 2015)

Tests used:
[1] = MTT assay, cytotoxic effect on HL-60 cells; assay type: cell-based; conditions: human, HL-60 promyelocytic cells, read-out: Cell viability (%)
Method: (§1) To investigate the cytotoxic effect of inventive extract of P. longifolium extract and the compound isolated therefrom was determined by (3-[4,5-dimethylthiazol-2-yl]-2,5-diphenyl tetrazolium bromide(MTT) assay method (Wang Z et al., Biol., Pharm. Bull., 24, pp 159-162, 2001).
(§2) Promyelotic HL-60 cells (HL-18103, 5×10^5 cells/ml) were seeded in 96-well plates under NGF-free condition. After 24 hours incubation, the cells were treated with the mixture of samples dissolved in 10 μl of DMSO and 10 μl of MTT solution (5 mg/ml), and incubated for 4 hours under similar condition. 4 hours later, MTT was removed and 100 μl of DMSO was dropped into each well to dissolve crystals. At 570 nm, UV absorbance was measured by microplate reader (BIO-RAD, U.S.A.) to calculate the cell viability.

IL-4 = experiment: Measurement of IL-4 in BALF by ELISA in OVA-induced asthmatic mice; assay type: in vivo, mouse; conditions: from OVA-challenged group; 48 hours after last challenge
Method: (§3) Following treatment: (1) sham-sensitization plus challenge with phosphate-buffered saline (PBS; ipNeb); (2) sensitization plus challenge with OVA (ovalbumin: Sigma A5503; Sigma, St. Louis, Mo.)(ipNeb); (3) sensitization with OVA (i.p.) plus challenge with OVA (Neb) and samples (extract of P. longifolium or montelukast) was performed to Group of mice (n=5). Briefly, mice were sensitized by intraperitoneal injection of 20 μg OVA, which was emulsified with 2 mg aluminum hydroxide in 100 μl of PBS buffer (pH 7.4) on days 0 and 14. […]
(§4) Complementary capture and detection antibody pairs for mouse IgE antibodies were purchased from PharMingen (San Diego, Calif.), and the IgE enzyme-linked immunosorbent assay (ELISA) was performed according to the manufacturer's directions. […] IgE levels in each sample were measured from optical density readings at 450 nm, and IgE concentrations were calculated from a standard curve that was generated using recombinant IgE (5-2,000 ng/ml). The amount of IL-4 and IL-13 contained in BALF was measured with a specific mouse ELISA kit (R&D Systems; Minneapolis, Minn.). […]
(§5) To determine the effect of verproside on cytokine release in the OVA-induced asthmatic mice, the levels of cytokines (IL-4 and IL-13) in BALF were measured using ELISA 48 hours after the last challenge. […]

Promyelotic HL-60 cells = experiment: MTT assay, cytotoxic effect on HL-60 cells; assay type: cell-based
Method: as §1, §2

IgE = experiment: Measurement of IgE by ELISA in plasma and BALF of OVA-challenged mice; assay type: in vivo, mouse; conditions: for IgE level in BALF: OVA-treated mice 59.4±38.4; for IgE level in plasma: OVA-treated mice 85.6±17.3
Method: (§6) Following treatment: (1) sham-sensitization plus challenge with phosphate-buffered saline (PBS; ipNeb); (2) sensitization plus challenge with OVA (ovalbumin: Sigma A5503; Sigma, St. Louis, Mo.)(ipNeb); (3) sensitization with OVA (i.p.) plus challenge with OVA (Neb) and samples (extract of P. longifolium or montelukast) was performed to Group of mice (n=5). Briefly, mice were sensitized by intraperitoneal injection of 20 μg OVA, which was emulsified with 2 mg aluminum hydroxide in 100 μl of PBS buffer (pH 7.4) on days 0 and 14. The mice were challenged through the airways with OVA (1% in PBS) for 20 min using an ultrasonic nubuilizer (NE-U12; Omron Corp., Tokyo, Japan) on days 28, 29 and 30 after the initial sensitization. The mice were sacrificed 48 h after the last challenge (day 32) to determine the suppression effect of extract of P. longifolium or verproside on the airways of allergic asthma.
(§7) The extract of P. longifolium, and verproside were suspended in PBS and administered intragastrically using a 25-gauge stainless steel blunt feeding needle 1 h before each challenge, and control animals were exposed only on the PBS solution. As a positive control, montelukast (MSD Korea Ltd., Seoul, Korea) was treated with the same procedure in the experiment.
Complementary capture and detection antibody pairs for mouse IgE antibodies were purchased from PharMingen (San Diego, Calif.), and the IgE enzyme-linked immunosorbent assay (ELISA) was performed according to the manufacturer's directions. Duplicate samples in plasma were diluted to 1:100. IgE levels in each sample were measured from optical density readings at 450 nm, and IgE concentrations were calculated from a standard curve that was generated using recombinant IgE (5-2,000 ng/ml). The amount of IL-4 and IL-13 contained in BALF was measured with a specific mouse ELISA kit (R&D Systems; Minneapolis, Minn.). The detection limit of the assays was 250 pg/ml.

OVA-challenged mice [2] = experiment: OVA-induced eosinophilia: inflammatory cell counts in bronchoalveolar lavage fluid; assay type: in vivo, BALB/c mice; conditions: from OVA-treated control group; 48 hours after last challenge
Excerpt: (§8) Specific pathogen-free female BALB/c mice aged 8-10 weeks, which were routinely screened serologically for relevant respiratory pathogens, were purchased from ORIENT Co Ltd (Seoul, Korea).
as §6, §7
The mice were sacrificed with an overdose of pentobarbital (Sigma P3761) […] after the last challenge, and a tracheotomy was performed. After ice-cold 0.5 ml of PBS was instilled into the lungs, bronchoalveolar lavage fluid (BALF) was obtained by aspiration three times (total 1.5 ml) via tracheal cannulation (Yamazaki T, J. Jap. Bot., 43, pp 117-24, 1968)
The total inflammatory cell number was assessed by counting cells in at least five squares of a hemocytometer after excluding dead cells confirmed by staining with trypan blue (Daigle I. et al., Swiss Med Wkly, 131, pp 231-7, 2001). 100 μl of BALF was loaded onto a slide and centrifuged (200×g, 4° C., 10 min) to fix the cells onto the slide using a cytospine machine (Hanil Science Industrial, Korea). The cells were stained by Diff-Quick® Stain reagents (Sysmex, Cat No. 38721, Switzerland) according to the manufacturer's instructions. Statistical significance was determined by Student's two-tailed t-test for independent means and the critical level for significance was set at P<0.05.
To evaluate the suppression of verproside on the eosinophilia in OVA-challenged mice, the recruited cells in BALF were counted 48 hours after the last challenge. OVA caused a marked influx of leucocytes into the BALF from a PBS control group.

OVA-challenged mice [3] = experiment: Lung histology (H&E and PAS staining) in OVA-challenged mice; assay type: in vivo, BALB/c mice; conditions: for mucus area score: PAS, five-point system 0-4, OVA-treated mice 3.60±0.64, FIG. 5
Method: as §6, §7
To estimate the suppressive effect of verproside on the eosinophilia, lung tissues were collected 48 hours after the last challenge. The lung tissue was fixed for 24 h in 10% neutral-buffered formalin. After being embedded in paraffin, it is sliced into 4-μm thickness of sections and the tissue was stained with H&E solution (hematoxylin; Sigma MHS-16 and eosin, Sigma HT110-I-32).
In Periodic acid Schiff (PAS) staining, mucus overproduction in the OVA-treated mice was clearly observed as a violet color in the bronchial airways compared with the normal mice. […] Goblet-cell hyperplasia in the airway epithelium was quantified based on a five-point system: 0, no goblet cells; 1, <25% of the epithelium; 2, 25-50% of the epithelium; 3, 50-75% of the epithelium; 4, >75% of the epithelium. For each mouse, five airway sections that were randomly distributed throughout the left lung were analysed, and their average scores were calculated. Quantitative analysis of mucus production was performed using an image analyzer (Leica Microsystem Imaging solution Ltd.; Cambridge, UK).

[4] = tested on: OVA-sensitized/challenged mouse model; experiment: Airway hyperresponsiveness (AHR), Penh values in OVA-challenged mice; assay type: in vivo, BALB/c mice; conditions: 24 hours after final OVA challenge; FIG. 1
Method: The AHR was evaluated by calculation Penh values (enhanced pause) 24 hours after the final OVA challenge.
as §8
as §6, with “asthma. […]” for “asthma.”

IL-13 = experiment: Measurement of IL-13 in BALF by ELISA in OVA-induced asthmatic mice; assay type: in vivo, mouse; conditions: from OVA-challenged group; 48 hours after last challenge
Method: as §3, §4, §5

## COc1ccc(/C=C/C(=O)O[C@H]2[C@@H]3C=CO[C@@H](O[C@@H]4O[C@H](CO)[C@@H](O)[C@H](O)[C@H]4O)[C@@H]3[C@@]3(CO)O[C@@H]23)cc1O [Minecoside, 6-O-3-hydroxy-4-methozycinnamoyl catalpol]
[1]; 50 μM
  viability at 4 h, 50 µM: 98%
[1]; 100 μM
  viability at 4 h, 100 µM: 95%

## O=C(O[C@H]1[C@@H]2C=CO[C@@H](O[C@@H]3O[C@H](CO)[C@@H](O)[C@H](O)[C@H]3O)[C@@H]2[C@@]2(CO)O[C@@H]12)c1ccc(O)c(O)c1 [verproside, 6-O-3,4-Dihydroxybenzoyl catalpol]
IL-4
  decrease in IL-4 in BALF: 64.5±27.7%
Promyelotic HL-60 cells; 50 μM
  Cell viability (%): 105%
Promyelotic HL-60 cells; 100 μM
  Cell viability (%): 102%
IgE
  IgE level in BALF: 21.5 ± 11.2 ng/mL
  IgE level in plasma: 40.2 ± 13.2 µg/mL
OVA-challenged mice [2]
  decrease in eosinophils in BALF: 86.2±7.2%
  decrease in total cells in BALF: 79.3±13.1%
OVA-challenged mice [3]
  mucus area score: 1.43±0.23
OVA-challenged mice [3]; compared with OVA-treated mice, 48 hours after last challenge, FIG. 3
  infiltration of eosinophil-rich leukocytes in lung tissue (H&E): significantly attenuated
OVA-challenged mice [3]; compared with OVA-treated mice, FIG. 4
  mucus in bronchial airways (PAS staining): markedly diminished
[4]
  Penh value compared with OVA-treated group (in words): significantly reduced
IL-13
  decrease in IL-13 in BALF: 74.9±15.5%

## CC(C)(O)c1ccccc1CC[C@@H](SCC1(CC(=O)O)CC1)c1cccc(/C=C/c2ccc3ccc(Cl)cc3n2)c1 [montelukast, reference compound]
IL-4
  decrease in IL-4 in BALF: 69.5±22.0%
IgE
  IgE level in BALF: 3.8 ± 0.7 ng/mL
  IgE level in plasma: 31.4 ± 14.2 µg/mL
OVA-challenged mice [2]
  decrease in eosinophils in BALF: 80.7±11.1%
  decrease in total cells in BALF: 78.3±12.1%
OVA-challenged mice [3]
  mucus area score: 1.53±0.24
IL-13
  decrease in IL-13 in BALF: 84.5±8.2%

## COc1ccc(C(=O)O[C@H]2[C@@H]3C=CO[C@@H](O[C@@H]4O[C@H](CO)[C@@H](O)[C@H](O)[C@H]4O)[C@@H]3[C@@]3(CO)O[C@@H]23)cc1OC [6-O-veratroyl catalpol, 6-O-(3,4-dimethoxybenzoyl) catalpol]
Promyelotic HL-60 cells; 50 μM
  Cell viability (%): 116%
Promyelotic HL-60 cells; 100 μM
  Cell viability (%): 114%
